Measured values reported in PubChem BioAssay AID248 (DTP/NCI, 2004).
Values joined by “and” are separate entries in the source; they are usually repeats but may differ in a detail not shown here. Equal entries are not always repeated. Toxic doses and inconclusive results are not listed. No stated cut-off is given here; in the data, active means T/C of 150% or more; inactive means T/C below 125%.

Tested on: L1210 leukemia ip in BDF1 mice, survival T/C
Experiment: NCI In Vivo Anticancer Drug Screen. Data for tumor model L1210 Leukemia (intraperitoneal) in B6D2F1 (BDF1) mice
Details: endpoint: mean survival time, higher = longer survival
How it was run: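 Value reflects the ratio of survival in compound-treated mice to survival in vehicle-treated controls, with both groups carrying the same transplanted tumor.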

Measured: T/C

CCC/C(=N\NC(=O)c1ccccc1O)c1ccccc1
inactive: dose: 100.0 mg/kg/injection, schedule: Q01DX001 (ip), vehicle: carboxymethylcellulose (CMC) 105 % of control | dose: 100.0 mg/kg/injection, schedule: Q01DX009 (ip), vehicle: carboxymethylcellulose (CMC) 102 % of control and 89 % of control | dose: 100.0 mg/kg/injection, schedule: Q04DX002 (ip), vehicle: carboxymethylcellulose (CMC) 95 % of control and 107 % of control | dose: 100.0 mg/kg/injection, schedule: Q04DX003 (ip), vehicle: carboxymethylcellulose (CMC) 93 % of control | dose: 200.0 mg/kg/injection, schedule: Q01DX001 (ip), vehicle: carboxymethylcellulose (CMC) 100 % of control | dose: 200.0 mg/kg/injection, schedule: Q01DX009 (ip), vehicle: carboxymethylcellulose (CMC) 94 % of control and 89 % of control | dose: 200.0 mg/kg/injection, schedule: Q04DX002 (ip), vehicle: carboxymethylcellulose (CMC) 98 % of control and 102 % of control | dose: 200.0 mg/kg/injection, schedule: Q04DX003 (ip), vehicle: carboxymethylcellulose (CMC) 89 % of control | dose: 400.0 mg/kg/injection, schedule: Q01DX001 (ip), vehicle: carboxymethylcellulose (CMC) 100 % of control | dose: 400.0 mg/kg/injection, schedule: Q01DX009 (ip), vehicle: carboxymethylcellulose (CMC) 94 % of control and 98 % of control | dose: 400.0 mg/kg/injection, schedule: Q04DX002 (ip), vehicle: carboxymethylcellulose (CMC) 98 % of control and 103 % of control | dose: 400.0 mg/kg/injection, schedule: Q04DX003 (ip), vehicle: carboxymethylcellulose (CMC) 98 % of control

O=Cc1ccc[n+](Cc2ccccc2)c1
inactive: dose: 75.0 mg/kg/injection, schedule: Q01DX001 (ip), vehicle: saline 98 % of control | dose: 150.0 mg/kg/injection, schedule: Q01DX001 (ip), vehicle: saline 102 % of control | dose: 300.0 mg/kg/injection, schedule: Q01DX001 (ip), vehicle: saline 102 % of control

CCC1CN2C(=N1)c1cc(Cl)ccc1-c1ccc(Cl)cc12 (centres undefined)
inactive: dose: 100.0 mg/kg/injection, schedule: Q01DX009 (ip), vehicle: Klucel (hydroxypropylcellulose) (HPC) 95 % of control | dose: 100.0 mg/kg/injection, schedule: Q04DX003 (ip), vehicle: Klucel (hydroxypropylcellulose) (HPC) 101 % of control | dose: 200.0 mg/kg/injection, schedule: Q01DX009 (ip), vehicle: Klucel (hydroxypropylcellulose) (HPC) 98 % of control | dose: 200.0 mg/kg/injection, schedule: Q04DX003 (ip), vehicle: Klucel (hydroxypropylcellulose) (HPC) 103 % of control | dose: 400.0 mg/kg/injection, schedule: Q04DX003 (ip), vehicle: Klucel (hydroxypropylcellulose) (HPC) 116 % of control

O=[N+]([O-])c1cccc(C=Nc2cc(Cl)ccc2Cl)c1
inactive: dose: 75.0 mg/kg/injection, schedule: Q04DX003 (ip), vehicle: Klucel (hydroxypropylcellulose) (HPC) 106 % of control | dose: 100.0 mg/kg/injection, schedule: Q01DX001 (ip), vehicle: Klucel (hydroxypropylcellulose) (HPC) 101 % of control | dose: 150.0 mg/kg/injection, schedule: Q04DX003 (ip), vehicle: Klucel (hydroxypropylcellulose) (HPC) 95 % of control | dose: 200.0 mg/kg/injection, schedule: Q01DX001 (ip), vehicle: Klucel (hydroxypropylcellulose) (HPC) 107 % of control | dose: 300.0 mg/kg/injection, schedule: Q04DX003 (ip), vehicle: Klucel (hydroxypropylcellulose) (HPC) 98 % of control | dose: 400.0 mg/kg/injection, schedule: Q01DX001 (ip), vehicle: Klucel (hydroxypropylcellulose) (HPC) 102 % of control

CCc1ccccc1Nc1cc(=O)[nH]c(=O)[nH]1
inactive: dose: 37.5 mg/kg/injection, schedule: Q01DX001 (ip), vehicle: Klucel (hydroxypropylcellulose) (HPC) 91 % of control | dose: 75.0 mg/kg/injection, schedule: Q01DX001 (ip), vehicle: Klucel (hydroxypropylcellulose) (HPC) 87 % of control | dose: 150.0 mg/kg/injection, schedule: Q01DX001 (ip), vehicle: Klucel (hydroxypropylcellulose) (HPC) 93 % of control
